# Source: article PMC8465290, “Zoledronic Acid as a Novel Dual Blocker of KIR6.1/2-SUR2 Subunits of ATP-Sensitive K^+ Channels: Role in the Adverse Drug Reactions” (Pharmaceutics, 2021)
# Tests used:
# [1] = test system: KATP channels of femora primary bone cells; assay: KATP currents in cell-attached patches of femora (long bone) primary bone cells; type: cell-based, mice; details: for inhibition of KATP currents in C-A patches (in words): nanomolar concentrations, Figure 1C; for IC50 / Imax % / Slope: Femora primary bone cells, cell-attached patches
# Method: (§1) The culture of primary bone cells from adult mice was obtained from long bones (tibia and femur) and calvaria, as previously described. Bones were collected, cleaned, and flushed for removing the internal bone marrow cells. Small bone pieces of around 1 mm^3 were treated with trypsin-EDTA 0.25% (w/v) for 1 h and with 0.2% collagenase solution for an additional hour in a shaking water bath to remove all remaining soft tissue and adherent cells. Clean bone pieces have been cultured in basal medium enriched with 50 µg/mL of ascorbic acid. Osteoblasts from femora (Figure S1A, Supplementary Material) and calvaria chips (Figure S1B) were positive to Alizarin red staining (Figure S1C). The marker of osteoblasts was positive, as tested by the PCR expression analysis on cell pellets (Figure S1D).
# (§2) The solutions for whole-cell and cell attached patches were as follows. The pipette solution contained 132 mM KCl, 1 mM ethylene glycol-bis(β-aminoethylether)-N,N,N′,N′-tetraaceticacid (EGTA), 10 mM NaCl, 2 mM MgCl2, 10 mM HEPES, 1 mM Na2ATP, and 0.3 mM Na2GDP (pH = 7.2). The bath solution contained 142 mM NaCl, 2.8 mM KCl, 1 mM CaCl2, 1 mM MgCl2, 11 mM glucose, and 10 mM HEPES (pH = 7.4).
# (§3) The whole-cell and cell-attached patch-clamp experiments were performed in asymmetrical K^+ ion concentration in physiological conditions using pipettes with the resistance of 3–5 MΩ.
# (§4) Drug actions on the channel currents recorded during instantaneous I/V relationships were investigated by applying a depolarization protocol, in response to voltage pulses from −180 mV to +100 mV (Vm) in 20 mV steps. Currents were expressed as densities (pA/pF) to control for cell size/capacitance differences. All experiments were performed at room temperature (20–22 °C) and sampled at 2 kHz (filter = 1 kHz) using an Axopatch-1D amplifier equipped with a CV-4 headstage (Axon Instruments; Foster City, CA, USA). Drug solutions were applied using a fast perfusion system during the continuous monitoring of the seal resistance at 18–22 °C room temperature in excised patches. In whole-cell and cell-attached patch-clamp experiments, before recording, the cells were equilibrated for 10 s with the solution. Data acquisition and analysis were performed using pCLAMP 10 software suite (Axon Instruments; Foster City, CA, USA), as previously described. Seal resistance was continuously monitored during the experiment.
# The percentage of KATP current inhibition induced by ZOL was calculated as (I CTRL-I drug)/(I CTRL-I BaCl2) × −100. The concentration response data of ZOL against different KATP channel currents were fitted by an algorithm using the non-linear dynamic fitting routine of Sigma Plot, 10.0.
# [2] = test system: KATP channels of calvaria primary bone cells; assay: KATP currents in cell-attached patches of calvaria primary bone cells; type: cell-based, mice
# Method: as §1, §2, §3
# Drug actions on the channel currents recorded during instantaneous I/V relationships were investigated by applying a depolarization protocol, in response to voltage pulses from −180 mV to +100 mV (Vm) in 20 mV steps. Currents were expressed as densities (pA/pF) to control for cell size/capacitance differences. All experiments were performed at room temperature (20–22 °C) and sampled at 2 kHz (filter = 1 kHz) using an Axopatch-1D amplifier equipped with a CV-4 headstage (Axon Instruments; Foster City, CA, USA). […] Seal resistance was continuously monitored during the experiment.
# (§5) The percentage of KATP current inhibition induced by ZOL was calculated as (I CTRL-I drug)/(I CTRL-I BaCl2) × −100. […]
# [3] = target: T1, KATP channels of Extensor digitorum longus (EDL) muscle fibers (Mus musculus, UniProt P70170+Q61743); assay: KATP currents in excised macro-patches from EDL muscle fibers (patch-clamp); type: cell-based, mice; details: excised macropatches
# T1 construct: The KATP currents of native skeletal muscle fibers were recorded in excised macro patches; from tissue; host or cells: isolated Extensor digitorum longus muscle fibers of C57BL mice
# Text: (§6) In accordance with 3R RULE (DIRECTIVE 2010/63/EU) Replace, Reduce, Refine, bone and skeletal muscle were collected from wild-type male mice C57BL sacrificed for other scientific purposes (Ethic Committee name, Organization for Animal Health O.P.B.A. University of Bari, Italy, project: 7282018PR). The fibers were enzymatically isolated from Extensor digitorum longus (EDL) and Soleus (SOL) muscles, as previously described.
# (§7) The solutions for excised patch experiments on isolated muscle fibers were as follows. The patch-pipette solution contained 150 mM KCl, 2 mM CaCl2, and 1 mM Mops (pH 7.2); the bath solution contained 150 mM KCl, 5 mM EGTA, and 10 mM Mops (pH 7.2).
# (§8) The KATP currents of native skeletal muscle fibers were recorded in excised macro patches using pipettes of 0.9–1.2 MΩ of resistance on isolated skeletal muscle fibers in symmetrical 150 mM K^+ ions concentrations on both sides of the membrane during pulse going from 0 mV to −60 mV (Vm), as previously described.
# as §4, with “Data acquisition and analysis were performed using pCLAMP 10 software suite (Axon Instruments; Foster City, CA, USA), as previously described.” left out
# as §5
# [4] = test system: KATP channels of Soleus (SOL) muscle fibers; assay: KATP currents in excised macro-patches from SOL muscle fibers (patch-clamp); type: cell-based, mice; details: excised macropatches
# Text: as §6, §7, §8
# as §4, with “Data acquisition and analysis were performed using pCLAMP 10 software suite (Axon Instruments; Foster City, CA, USA), as previously described.” left out
# as §5
# [5] = target: T2, KIR6.2-SUR2A (Homo sapiens, UniProt O60706+Q14654); assay: Whole-cell current of recombinant KIR6.2-SUR2A in Hek293 cells; type: cell-based
# T2 construct: expressed in transfected cells; host or cells: Hek293
# T2 sequence (Q14654 whole entry): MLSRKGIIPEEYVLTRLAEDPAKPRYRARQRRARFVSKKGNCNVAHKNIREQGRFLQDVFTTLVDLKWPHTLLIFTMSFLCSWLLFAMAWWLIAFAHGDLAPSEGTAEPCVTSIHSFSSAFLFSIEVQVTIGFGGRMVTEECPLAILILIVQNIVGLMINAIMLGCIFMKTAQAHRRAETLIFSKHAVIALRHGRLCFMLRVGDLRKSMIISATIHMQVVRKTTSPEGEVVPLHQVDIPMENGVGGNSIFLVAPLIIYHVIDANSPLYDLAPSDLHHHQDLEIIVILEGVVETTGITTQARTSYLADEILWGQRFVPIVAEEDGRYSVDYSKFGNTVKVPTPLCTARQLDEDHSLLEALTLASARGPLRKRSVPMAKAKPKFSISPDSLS
# T2 sequence (O60706 whole entry): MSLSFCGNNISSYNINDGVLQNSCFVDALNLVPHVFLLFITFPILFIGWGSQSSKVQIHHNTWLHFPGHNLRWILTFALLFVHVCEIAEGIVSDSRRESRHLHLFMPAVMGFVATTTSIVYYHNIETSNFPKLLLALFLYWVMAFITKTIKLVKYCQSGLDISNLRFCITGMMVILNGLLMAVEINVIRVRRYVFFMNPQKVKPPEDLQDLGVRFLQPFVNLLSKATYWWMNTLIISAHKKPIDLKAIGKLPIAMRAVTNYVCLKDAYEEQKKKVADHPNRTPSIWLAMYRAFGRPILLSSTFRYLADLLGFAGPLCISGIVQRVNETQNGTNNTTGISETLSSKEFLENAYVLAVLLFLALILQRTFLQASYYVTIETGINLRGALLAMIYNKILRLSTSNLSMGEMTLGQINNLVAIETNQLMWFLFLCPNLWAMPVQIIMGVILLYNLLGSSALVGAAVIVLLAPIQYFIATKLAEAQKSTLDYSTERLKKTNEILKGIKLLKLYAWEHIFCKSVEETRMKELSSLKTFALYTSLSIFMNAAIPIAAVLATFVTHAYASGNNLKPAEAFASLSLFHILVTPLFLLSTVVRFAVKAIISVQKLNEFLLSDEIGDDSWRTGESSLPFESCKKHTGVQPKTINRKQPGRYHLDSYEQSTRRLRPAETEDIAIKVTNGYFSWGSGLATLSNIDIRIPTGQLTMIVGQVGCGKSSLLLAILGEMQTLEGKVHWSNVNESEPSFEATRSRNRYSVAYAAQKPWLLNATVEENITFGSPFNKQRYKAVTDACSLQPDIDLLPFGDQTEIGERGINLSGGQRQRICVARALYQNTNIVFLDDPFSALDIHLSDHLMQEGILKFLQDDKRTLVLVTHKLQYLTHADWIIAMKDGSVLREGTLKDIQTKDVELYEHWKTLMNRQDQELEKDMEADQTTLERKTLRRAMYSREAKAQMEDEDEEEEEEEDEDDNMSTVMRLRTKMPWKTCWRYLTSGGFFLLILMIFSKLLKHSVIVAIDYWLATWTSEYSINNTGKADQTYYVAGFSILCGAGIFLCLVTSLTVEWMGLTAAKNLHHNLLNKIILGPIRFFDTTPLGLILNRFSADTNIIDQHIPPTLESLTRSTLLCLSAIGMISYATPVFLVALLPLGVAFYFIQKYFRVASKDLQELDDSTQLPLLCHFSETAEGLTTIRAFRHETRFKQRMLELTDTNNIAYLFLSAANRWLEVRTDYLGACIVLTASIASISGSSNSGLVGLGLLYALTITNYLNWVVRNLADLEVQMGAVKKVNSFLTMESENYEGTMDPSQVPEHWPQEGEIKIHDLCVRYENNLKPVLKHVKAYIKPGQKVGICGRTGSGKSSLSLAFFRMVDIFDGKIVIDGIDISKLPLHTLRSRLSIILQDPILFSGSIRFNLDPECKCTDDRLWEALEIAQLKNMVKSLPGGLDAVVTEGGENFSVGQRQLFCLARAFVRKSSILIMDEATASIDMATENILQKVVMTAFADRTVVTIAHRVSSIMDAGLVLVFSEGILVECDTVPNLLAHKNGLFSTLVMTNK
# Method: (§9) For experiments on recombinant channel subunits, Hek293 cells were transfected with the relevant plasmids, as previously described.
# as §2
# (§10) CaCl2 was added to the pipette solutions to give a free Ca^2+ ion concentration of 1.6 × 10^−6 M in whole-cell experiments. The calculation of the free Ca^2+ ion concentration in the pipette was performed using the MaxChelator software (Stanford University; Stanford, CA, USA).
# as §3
# as §4, with “Data acquisition and analysis were performed using pCLAMP 10 software suite (Axon Instruments; Foster City, CA, USA), as previously described.” left out
# as §5
# [6] = target: T3, KIR6.1-SUR2B (Homo sapiens, UniProt O60706+Q15842); assay: Whole-cell current of recombinant KIR6.1-SUR2B in Hek293 cells; type: cell-based
# T3 construct: expressed in transfected cells; host or cells: Hek293
# Method: as §9, §2, §10, §3
# as §4, with “Data acquisition and analysis were performed using pCLAMP 10 software suite (Axon Instruments; Foster City, CA, USA), as previously described.” left out
# as §5
# [7] = target: T4, KIR6.1-SUR1 (Homo sapiens, UniProt Q09428+Q15842); assay: Whole-cell current of recombinant KIR6.1-SUR1 in Hek293 cells; type: cell-based; details: Hek293 cells KIR6.1-SUR1, whole-cell, −60 mV
# T4 construct: expressed in transfected cells; host or cells: Hek293
# T4 sequence (Q15842 whole entry): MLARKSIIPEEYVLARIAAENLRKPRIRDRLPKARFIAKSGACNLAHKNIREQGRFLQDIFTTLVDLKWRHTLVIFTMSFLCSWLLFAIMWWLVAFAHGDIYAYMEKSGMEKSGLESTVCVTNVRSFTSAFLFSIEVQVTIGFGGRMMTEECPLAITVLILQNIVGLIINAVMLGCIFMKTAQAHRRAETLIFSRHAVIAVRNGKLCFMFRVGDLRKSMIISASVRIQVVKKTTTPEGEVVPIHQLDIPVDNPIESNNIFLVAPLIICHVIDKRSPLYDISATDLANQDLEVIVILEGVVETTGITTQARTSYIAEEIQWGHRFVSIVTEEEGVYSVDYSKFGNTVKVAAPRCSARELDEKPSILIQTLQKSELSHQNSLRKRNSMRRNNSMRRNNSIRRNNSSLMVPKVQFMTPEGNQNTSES
# T4 sequence (Q09428 whole entry): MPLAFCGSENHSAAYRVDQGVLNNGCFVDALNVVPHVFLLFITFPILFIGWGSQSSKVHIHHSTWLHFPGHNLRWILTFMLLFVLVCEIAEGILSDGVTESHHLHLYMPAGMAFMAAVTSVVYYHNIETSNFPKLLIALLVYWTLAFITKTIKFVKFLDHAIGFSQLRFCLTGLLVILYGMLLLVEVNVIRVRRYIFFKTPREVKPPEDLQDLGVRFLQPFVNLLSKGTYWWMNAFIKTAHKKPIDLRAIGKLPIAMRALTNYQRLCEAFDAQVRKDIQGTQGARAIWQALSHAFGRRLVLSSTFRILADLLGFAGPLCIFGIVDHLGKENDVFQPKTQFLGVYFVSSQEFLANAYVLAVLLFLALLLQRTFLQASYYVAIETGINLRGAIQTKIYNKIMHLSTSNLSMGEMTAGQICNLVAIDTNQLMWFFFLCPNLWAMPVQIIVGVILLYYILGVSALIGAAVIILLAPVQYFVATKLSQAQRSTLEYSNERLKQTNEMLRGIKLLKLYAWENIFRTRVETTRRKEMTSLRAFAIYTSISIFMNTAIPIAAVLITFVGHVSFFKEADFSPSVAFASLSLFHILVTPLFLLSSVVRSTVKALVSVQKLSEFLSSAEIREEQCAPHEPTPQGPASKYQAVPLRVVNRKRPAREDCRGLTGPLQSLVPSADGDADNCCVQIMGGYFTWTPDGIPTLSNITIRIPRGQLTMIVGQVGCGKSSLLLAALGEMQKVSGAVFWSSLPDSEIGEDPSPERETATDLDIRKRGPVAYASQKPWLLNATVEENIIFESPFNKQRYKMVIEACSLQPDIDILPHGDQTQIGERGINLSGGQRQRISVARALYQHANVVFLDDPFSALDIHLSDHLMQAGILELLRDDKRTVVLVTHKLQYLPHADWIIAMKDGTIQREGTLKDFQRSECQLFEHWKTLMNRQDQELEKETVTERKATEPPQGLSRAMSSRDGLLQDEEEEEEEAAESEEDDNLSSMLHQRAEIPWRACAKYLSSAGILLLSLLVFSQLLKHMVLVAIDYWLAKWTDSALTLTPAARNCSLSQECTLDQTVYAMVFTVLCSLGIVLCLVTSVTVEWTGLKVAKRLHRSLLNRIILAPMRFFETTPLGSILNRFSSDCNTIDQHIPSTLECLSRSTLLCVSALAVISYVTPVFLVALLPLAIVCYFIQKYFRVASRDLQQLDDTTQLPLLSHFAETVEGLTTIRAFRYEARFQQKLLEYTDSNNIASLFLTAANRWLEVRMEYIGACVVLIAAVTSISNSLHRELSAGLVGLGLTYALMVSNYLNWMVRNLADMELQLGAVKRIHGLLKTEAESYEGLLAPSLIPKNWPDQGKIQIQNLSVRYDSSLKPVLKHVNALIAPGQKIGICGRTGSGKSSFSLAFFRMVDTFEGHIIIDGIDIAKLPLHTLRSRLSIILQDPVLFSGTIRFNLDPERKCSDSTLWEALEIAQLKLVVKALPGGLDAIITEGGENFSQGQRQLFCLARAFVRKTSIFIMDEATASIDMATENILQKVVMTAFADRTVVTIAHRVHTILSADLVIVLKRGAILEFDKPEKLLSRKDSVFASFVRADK
# Method: as §9, §2
# CaCl2 was added to the pipette solutions to give a free Ca^2+ ion concentration of 1.6 × 10^−6 M in whole-cell experiments. The calculation of the free Ca^2+ ion concentration in the pipette was performed using the MaxChelator software (Stanford University; Stanford, CA, USA). […]
# Drug actions on the channel currents recorded during instantaneous I/V relationships were investigated by applying a depolarization protocol, in response to voltage pulses from −180 mV to +100 mV (Vm) in 20 mV steps. Currents were expressed as densities (pA/pF) to control for cell size/capacitance differences. […] Seal resistance was continuously monitored during the experiment.
# as §5
# [8] = target: T5, KIR6.2-SUR1 (Homo sapiens, UniProt Q09428+Q14654); assay: Whole-cell current of recombinant KIR6.2-SUR1 in Hek293 cells; type: cell-based; details: Hek293 cells KIR6.2-SUR1, whole-cell
# T5 construct: expressed in transfected cells; host or cells: Hek293
# T5 sequence (Q14654 whole entry): as the sequence (Q14654 whole entry) above
# T5 sequence (Q09428 whole entry): as the sequence (Q09428 whole entry) above
# Method: as §9, §2, §10, §3
# as §4, with “Data acquisition and analysis were performed using pCLAMP 10 software suite (Axon Instruments; Foster City, CA, USA), as previously described.” left out
# as §5
# [9] = Pharmacovigilance analysis of A.D.R. in EudraVigilance database; set-up: species or system human
# Text: All coding preferred terms per System Organ Class (S.O.C.) were screened in the EudraVigilance database (http://www.adrreports.eu/ accessed on 1 May 2021), and those potentially associated with KATP channel blocking actions were reported and subject to analysis.
# The data were extracted from EudraVigilance, collected, and analyzed on Microsoft 365 Excel software package (Microsoft 10.00). The not specified category was not included in the calculation. The duplication of a specific report per S.O.C. was evaluated manually and excluded from the analysis.
# The Proportional Reporting Ratio (P.R.R.) was calculated using the following equation: a/(a+c)/b/(b + d) where a is the reaction of interest to a given drug of interest, b is the reaction of interest for all other drugs in the class, c are all other reactions to a given drug of interest, and d are all other reactions to all other drugs in the class. Signal definition: P.R.R. ≥ 2, a minimum of three ratios/cases for the reaction of interest, X^2 ≥ 4. No signal is identified if P.R.R. is = 1 [47].
# [10] = set-up: method as in EudraVigilance database; details: cited from earlier work
# [11] = set-up: method as in PMID 24330023; details: multiple myeloma patients ref 9; cited from earlier work
# [12] = musculoskeletal and connective tissues disorders S.O.C.
# [13] = within the KATP channel blockers
# [14] = all ages ref EudraVigilance database
compound,measurement,setting,value
"COc1ccc(Cl)cc1C(=O)NCCc1ccc(S(=O)(=O)NC(=O)NC2CCCCC2)cc1 [Glibenclamide, 5-chloro-N-(2-{4-[(cyclohexylcarbamoyl)sulfamoyl]phenyl}ethyl)-2-methoxybenzamide]",inhibition of KATP currents in C-A patches (in words),[1],markedly reduced
same,IC50,[1],5.07 nM
same,Imax %,[1],−88.32 ± 21 n = 13 cells %
same,Slope,[1],0.4 ± 0.08
same,IC50,[2],10.2 nM
same,Imax %,[2],−93 ± 14 n = 18 cells %
same,Slope,[2],0.5 ± 0.03
CCCCNC(=O)NS(=O)(=O)c1ccc(C)cc1 [tolbutamide],inhibition of KATP currents in C-A patches (in words),[1],less effective inhibitor
O=P(O)(O)C(O)(Cn1ccnc1)P(=O)(O)O [Zoledronic acid],IC50,[3],1200 nM
same,Slope,[3]; concentration-response fit,0.38 ± 0.07
same,Imax %,"[3]; −60 mV, symmetrical 150 mM K+",−100.1 ± 9.3 n = 17 fibers %
same,IC50,[4],0.21 nM
same,Slope,[4]; concentration-response fit,0.29 ± 0.05
same,Imax %,"[4]; −60 mV, symmetrical 150 mM K+",−99.4 ± 5 n = 21 fibers %
same,IC50,[1],0.16 nM
same,Imax %,[1],−104.8 ± 8.7 n = 21 cells %
same,Slope,[1],0.31 ± 0.07
same,IC50,[5],7100 nM
same,Slope,[5],* 0.12 ± 0.7
same,Imax %,[5]; −60 mV,−83.7 ± 1.2 n = 15 cells %
same,IC50,[6],0.39 nM
same,Slope,[6],0.59 ± 0.04
same,Imax %,[6]; −60 mV,−94 ± 4.8 n = 15 cells %
same,Imax %,[7],* −40 ± 8.8 n = 3 cells %
same,IC50,[8],21000 nM
same,Slope,[8],* 0.18 ± 0.09
same,Imax %,[8]; −60 mV,* −60.13 ± 4.1 n = 15 cells %
same,"hypoglycemia, % of the A.D.R. per S.O.C.",[9],1.63%
same,"arrhythmia, % of cardiac A.D.R.",[9]; cardiac A.D.R.,8.1%
same,"atrial fibrillation, % of cardiac A.D.R.",[9]; cardiac A.D.R.,17.9%
same,"congestive heart failure, % of cardiac A.D.R.",[9]; cardiac A.D.R.,12.6%
same,"myocardial infarction, % of cardiac A.D.R.",[9]; cardiac A.D.R.,12%
same,"palpitations, % of cardiac A.D.R.",[9]; cardiac A.D.R.,13.2%
same,"sinus tachycardia, % of cardiac A.D.R.",[9]; cardiac A.D.R.,5.3%
same,"tachycardia, % of cardiac A.D.R.",[9]; cardiac A.D.R.,12.2%
same,"arthralgia, % of the A.D.R.",[9]; [12],16%
same,"muscular weakness, % of the A.D.R. per S.O.C.",[9]; [12],2.7%
same,"myalgia, % of the A.D.R.",[9]; [12],10%
same,"osteonecrosis of the jaw, % of the total A.D.R.",[9]; [12],47.9%
same,"blood pressure increase, % of A.D.R.",[9]; vascular S.O.C.,16%
same,"hypertension, % of A.D.R.",[9]; vascular S.O.C.,25%
same,"hypotension, % of A.D.R.",[9]; vascular S.O.C.,18%
same,Proportional Reporting Ratio (P.R.R.) arrhythmias,[9]; [13],≥ 2
same,Proportional Reporting Ratio (P.R.R.) atrial fibrillation,[9]; [13],≥ 2
same,Proportional Reporting Ratio (P.R.R.) diarrhea,[9]; [13],≥ 2
same,Proportional Reporting Ratio (P.R.R.) hypertension,[9]; [13],≥ 2
same,Proportional Reporting Ratio (P.R.R.) hypoglycemia,[9]; [13],lower risk
same,Proportional Reporting Ratio (P.R.R.) muscular weakness,[9]; [13],≥ 2
same,Proportional Reporting Ratio (P.R.R.) myalgia,[9]; [13],≥ 2
same,Proportional Reporting Ratio (P.R.R.) osteonecrosis of jaw,[9]; [13],≥ 2
same,Proportional Reporting Ratio (P.R.R.) rhabdomyolysis,[9]; [13],lower risk
same,"osteonecrosis of the jaw, affected females",[10]; [14],4792
same,"osteonecrosis of the jaw, affected males",[10]; [14],3184
same,adverse reaction cases reported,"[10]; all indications, up to 1 May 2021 ref EudraVigilance database","35,201 cases"
same,"arrhythmia, number of reports",[10]; cardiac A.D.R. ref EudraVigilance database,197
same,median overall survival,[11],52 months
CCC1=C(C)CN(C(=O)NCCc2ccc(S(=O)(=O)NC(=O)N[C@H]3CC[C@H](C)CC3)cc2)C1=O [glimepiride],"hypoglycemia, % of the A.D.R. per S.O.C.",[9],75.6%
same,"rhabdomyolysis, % of A.D.R.",[9]; within musculoskeletal and connective tissue disorders,17.7%
same,Proportional Reporting Ratio (P.R.R.) hypoglycemia,[9]; [13],≥ 2
